Article PMC3171627 (Bioorganic & medicinal chemistry letters, 2011)

Assays:
[1] = biological target: CB2 receptor (Mus musculus, UniProt P47936); assay: visualization of CB2 receptor binding by CD4+ T cells, confocal microscopy; format: cell-based; conditions: 5 µM, on ice for 30 minutes, T cells from peripheral lymph nodes of BALB/C mice
[2] = biological target: CB1 (Homo sapiens, UniProt P21554); conditions: GTPγ[35S] assay; antagonist series; cited from earlier work
[3] = tested on: CB2; conditions: read-out: CB2 functional activity EC50; GTPγ[35S] assay; antagonist series; cited from earlier work

Chain of CB2 receptor (P47936 whole entry): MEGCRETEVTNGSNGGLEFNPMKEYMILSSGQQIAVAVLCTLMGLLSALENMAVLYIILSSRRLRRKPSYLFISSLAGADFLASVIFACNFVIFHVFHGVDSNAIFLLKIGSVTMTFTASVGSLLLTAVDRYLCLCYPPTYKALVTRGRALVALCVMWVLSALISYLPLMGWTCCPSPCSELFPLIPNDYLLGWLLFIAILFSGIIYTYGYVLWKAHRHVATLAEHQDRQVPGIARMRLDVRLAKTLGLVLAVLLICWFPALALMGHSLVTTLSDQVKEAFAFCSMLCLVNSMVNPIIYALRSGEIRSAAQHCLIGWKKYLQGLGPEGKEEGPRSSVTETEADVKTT
Chain of CB1 (P21554 whole entry, species assumed): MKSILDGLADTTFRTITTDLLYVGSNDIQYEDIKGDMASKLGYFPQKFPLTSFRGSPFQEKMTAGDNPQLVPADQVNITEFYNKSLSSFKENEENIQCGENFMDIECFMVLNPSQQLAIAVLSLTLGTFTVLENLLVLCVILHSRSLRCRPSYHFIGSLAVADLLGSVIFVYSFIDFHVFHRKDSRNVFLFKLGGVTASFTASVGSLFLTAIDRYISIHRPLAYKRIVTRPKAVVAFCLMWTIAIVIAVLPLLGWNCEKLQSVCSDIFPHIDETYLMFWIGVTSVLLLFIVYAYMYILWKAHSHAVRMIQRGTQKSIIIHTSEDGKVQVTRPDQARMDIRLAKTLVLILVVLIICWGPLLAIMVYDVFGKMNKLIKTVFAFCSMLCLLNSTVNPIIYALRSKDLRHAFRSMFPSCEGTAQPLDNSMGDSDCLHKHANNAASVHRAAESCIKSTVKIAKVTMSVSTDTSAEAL

CCCCCN1C(=O)/C(=N\NC(=O)CN(C)c2ccc([N+](=O)[O-])c3nonc23)c2ccc(OC)cc21 [Compound 6]
staining of CD4+ T cells [1]: stained the CD4^+ T cells

CCCCCN1C(=O)/C(=N\NC(=O)CN2CCOCC2)c2ccc(OC)cc21 [Compound 5]
CB1 activity [2]: did not show any CB1 functional activity
EC50 [3]: 13.3 nM
